Laboratory results from patent US8703965B2, “Preparation of saturated imidazolinium salts and related compounds” (Materia, Inc., priority 2007, dated 2014).

Assay: Solubility of the salts in different solvents at different temperature (basis for the separation)
From the text: The principle to separate the two salts is the solubility in different solvents at different temperature.

Solubility in toluene (100 C.) | Compound | Solubility in acetone (Room Temperature) | Solubility in hexane (Room Temperature) | Solubility in toluene (Room Temperature) | Solubility in water (Room Temperature)
– | Cc1cc(C)c(N2C=[N+](c3c(C)cc(C)cc3C)CC2)c(C)c1.[Br-] [sIMes-HBr, 1,3-Dimesitylimidazolinium Bromide] | slightly soluble | not soluble | not soluble | slightly soluble
soluble | Br.CCN(C(C)C)C(C)C [i-Pr2NEt—HBr] | soluble | not soluble | not soluble | very soluble
